Reference: patent US20200270309A1, “MALEIMIDE GROUP-MODIFIED ANGIOGENESIS INHIBITOR HM-1 AND USE THEREOF” (NANJING ANJI BIOLOGICAL TECHNOLOGY CO., LTD, priority 2017, published 2020)
Marks after values point to notes of the source that are not given here. Peptide text beside a SMILES is read from it. * marks the point of attachment. X68 = O=C1C=CC(=O)N1c1ccccc1CCCCCCCCCCCC(=O)*; X59 = O=C1C=CC(=O)N1c1cccc(CCCCCCCCC(=O)*)c1; X63 = O=C1C=CC(=O)N1c1ccccc1CCCCCCC(=O)*

Experiments:
[1] = tested on: choroidal neovascularization; test: Choroidal neovascularization in rats (laser photocoagulation, FFA); type: in vivo; settings: BN rats
Protocol: 6-8 weeks male BN rats were fully anesthetized by intraperitoneal injection of 846 compound anesthetic with a concentration of 0.5 mL/kg. Compound tropicamide eye drops were used once 5 min before laser photocoagulation to fully dilate the pupils of both eyes. The animals were fixed and subjected to krypton laser photocoagulation equidistantly around an optic disc with the aid of a −53.00D corneal contact lens at a distance of 2PD from the optic disc. A total of 8 photocoagulation spots were obtained. The laser wavelength was 647.1 nm, the power was 350 mW, and the diameter and time of the photocoagulation spots were 50 μm and 0.05 s respectively. Fundus photography was performed immediately after photocoagulation. FFA, histopathology and transmission electron microscopy were performed on the days 3, 7, 14, 21 and 28 after photocoagulation respectively.
Through fundus photography and FFA examination, it was confirmed that the fluorescein leakage of the photocoagulation spot reached its peak on day 21 after photocoagulation. At the same time, histopathological examination was carried out.
Rats with successful modeling were randomly grouped, with 5 rats in each group. The groups were marked as a negative control group and X1-X90 treatment groups respectively. The rats were injected with normal saline and X1-X90 (the doses of X1-X90 were each 0.05 μM) in the vitreous chamber once a day for 1 week. FFA examination was carried out 3 days, 7 days, 14 days and 28 days after administration.

[2] = tested on: human retinal capillary endothelial cells (HRCECs); test: MTT proliferation inhibition on HRCECs; type: cell-based; settings: 48 h; for A570 nm-A630 nm: mean±SD
In short: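 HRCECs seeded at 3.0×10^4 cells/mL, adhered overnight, then exposed to polypeptide for 48 h at 37 °C, 5% CO2. MTT added 4 h, formazan dissolved in DMSO, absorbance 570/630 nm; PIR (%) = 1 − treated/negative control, mean±SD of three independent runs.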

splenic lymphocytes = test: Proliferation of splenic lymphocytes in mice (ConA, MTT); type: cell-based; settings: ConA-stimulated mouse splenic lymphocytes, 48 h
In short: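 Mouse splenocytes (5×10^6 cells/mL, RPMI 1640 with 10% calf serum, red cells lysed) stimulated with ConA plus varying polypeptide concentrations, with blank, ConA-only and Dex groups, 48 h at 37° C. MTT added for 4 h, formazan dissolved in DMSO, OD read at 570 nm; five replicates.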

[3] = tested on: carrageenan-induced toe swelling; test: Carrageenan-induced toe swelling in rats; type: in vivo; settings: SD rats; for Swelling degree 1 h: 1 h after carrageenan; for Swelling degree 3 h: 3 h after carrageenan; for Swelling degree 5 h: 5 h after carrageenan; for Swelling degree 7 h: 7 h after carrageenan
In short: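 Rats dosed by injection once daily for 3 d, controls given equal-volume saline. Right hind paw volume measured by water displacement to a marked joint line; swelling degree (mL) is paw volume after carrageenan inflammation minus volume before.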

adjuvant arthritis = test: Rat adjuvant arthritis (AA) animal model; type: in vivo, SD rats; settings: 4.0 mg/kg; for Clinical score: intravenous in the tail once every five days from day 10, four paws scored 0-4, max 16, mean±SD; for Joint swelling degree / Left and right paw swelling degree: intravenous in the tail once every five days from day 10, mean±SD
[4] = tested on: corneal neovascularization; test: Corneal neovascularization induced by alkali burn in BALB/c mice; type: in vivo; set-up: Inhibition rate (corneal neovascularization): concentration or dose not given beside the values; settings: day 14 after alkali burn, vitreous injection once a day for 1 week
[5] = day 3 after administration, total light spot number was 297, 0.05 μM in the vitreous chamber once a day for 1 week
[6] = day 7 after administration, total light spot number was 186, 0.05 μM in the vitreous chamber once a day for 1 week
[7] = day 14 after administration, total light spot number was 137, 0.05 μM in the vitreous chamber once a day for 1 week
[8] = day 28 after administration, total light spot number was 69, 0.05 μM in the vitreous chamber once a day for 1 week

| SMILES | CNV Incidence (%) [1, 5] [%] | Leakage Light spot number [1, 5] | CNV Incidence (%) [1, 6] [%] | Leakage Light spot number [1, 6] | CNV Incidence (%) [1, 7] [%] | Leakage Light spot number [1, 7] | CNV Incidence (%) [1, 8] [%] | Leakage Light spot number [1, 8] | Inhibition rate (%) ([2]; dose 0.05 μM) [%*] | A570 nm-A630 nm ([2]; dose 0.05 μM) | Inhibition rate (%) ([2]; dose 0.1 μM) [%**] | A570 nm-A630 nm ([2]; dose 0.1 μM) | Inhibition rate (%) ([2]; dose 0.2 μM) [%*] | A570 nm-A630 nm ([2]; dose 0.2 μM) | A570 nm/A630 nm (splenic lymphocytes; polypeptide dose 0.05 μM) | Inhibition rate (%) (splenic lymphocytes; polypeptide dose 0.05 μM) | A570 nm/A630 nm (splenic lymphocytes; polypeptide dose 0.1 μM) | Inhibition rate (%) (splenic lymphocytes; polypeptide dose 0.1 μM) | A570 nm/A630 nm (splenic lymphocytes; polypeptide dose 0.2 μM) | Inhibition rate (%) (splenic lymphocytes; polypeptide dose 0.2 μM) | also measured |
| --- | --- | --- | --- | --- | --- | --- | --- | --- | --- | --- | --- | --- | --- | --- | --- | --- | --- | --- | --- | --- | --- |
| C[C@H](NC(=O)CNC(=O)[C@H](CCCNC(=N)N)NC(=O)CCCCCCc1ccccc1N1C(=O)C=CC1=O)C(=O)N[C@@H](CC(=O)O)C(=O)N[C@@H](CCCNC(=N)N)C(=O)N[C@@H](C)C(=O)NCC(=O)NCC(=O)NCC(=O)NCC(=O)N[C@@H](CCCNC(=N)N)C(=O)NCC(=O)N[C@@H](CC(=O)O)C(=O)O [X18] (X63-RGADRAGGGGRGD-OH) | 53.87 | 160 | 46.24 | 86 | 45.99 | 63 | 44.93 | 31 | 42.60 | 0.7586 ± 0.05265 | 52.30 | 0.6304 ± 0.03508 | 61.78 | 0.5051 ± 0.08266 | 0.6041 ± 0.0524 | 10.56 | 0.5571 ± 0.0554 | 17.52 | 0.4402 ± 0.0534 | 34.82 | Swelling degree 1 h ([3]; 2.0 mg/kg once a day for 3 d): 0.23 ± 0.18 mg; Swelling degree 3 h ([3]; 2.0 mg/kg once a day for 3 d): 0.33 ± 0.16 mg; Swelling degree 5 h ([3]; 2.0 mg/kg once a day for 3 d): 0.36 ± 0.15 mg; Swelling degree 7 h ([3]; 2.0 mg/kg once a day for 3 d): 0.32 ± 0.13 mg; Swelling degree 1 h ([3]; 4.0 mg/kg once a day for 3 d): 0.24 ± 0.17 mg; Swelling degree 3 h ([3]; 4.0 mg/kg once a day for 3 d): 0.39 ± 0.18 mg; Swelling degree 5 h ([3]; 4.0 mg/kg once a day for 3 d): 0.45 ± 0.15 mg; Swelling degree 7 h ([3]; 4.0 mg/kg once a day for 3 d): 0.33 ± 0.12 mg; Clinical score (adjuvant arthritis): 5.67 ± 1.04; Joint swelling degree (adjuvant arthritis): 0.83 ± 0.15 mm; Left and right paw swelling degree (adjuvant arthritis): 3.81 ± 0.85 mm; Inhibition rate (corneal neovascularization) [4]: 50.18%; MVD (corneal microvessel density) [4]: 33.50 ± 5.649 |
| C[C@H](NC(=O)CNC(=O)[C@H](CCCNC(=N)N)NC(=O)CCCCCCCCc1cccc(N2C(=O)C=CC2=O)c1)C(=O)N[C@@H](CC(=O)O)C(=O)N[C@@H](CCCNC(=N)N)C(=O)N[C@@H](C)C(=O)NCC(=O)NCC(=O)NCC(=O)NCC(=O)N[C@@H](CCCNC(=N)N)C(=O)NCC(=O)N[C@@H](CC(=O)O)C(=O)O [X32] (X59-RGADRAGGGGRGD-OH) | 54.21 | 161 | 46.24 | 86 | 43.07 | 59 | 42.03 | 29 | 52.91 | 0.6224 ± 0.08338 | 54.38 | 0.6030 ± 0.05575 | 69.51 | 0.4030 ± 0.00097 | 0.6117 ± 0.0672 | 9.43 | 0.5954 ± 0.0678 | 11.84 | 0.5428 ± 0.0408 | 19.63 | Swelling degree 1 h ([3]; 2.0 mg/kg once a day for 3 d): 0.25 ± 0.18 mg; Swelling degree 3 h ([3]; 2.0 mg/kg once a day for 3 d): 0.35 ± 0.13 mg; Swelling degree 5 h ([3]; 2.0 mg/kg once a day for 3 d): 0.36 ± 0.12 mg; Swelling degree 7 h ([3]; 2.0 mg/kg once a day for 3 d): 0.31 ± 0.17 mg; Swelling degree 1 h ([3]; 4.0 mg/kg once a day for 3 d): 0.24 ± 0.14 mg; Swelling degree 3 h ([3]; 4.0 mg/kg once a day for 3 d): 0.33 ± 0.17 mg; Swelling degree 5 h ([3]; 4.0 mg/kg once a day for 3 d): 0.41 ± 0.15 mg; Swelling degree 7 h ([3]; 4.0 mg/kg once a day for 3 d): 0.35 ± 0.12 mg; Clinical score (adjuvant arthritis): 5.81 ± 1.14; Joint swelling degree (adjuvant arthritis): 0.81 ± 0.18 mm; Left and right paw swelling degree (adjuvant arthritis): 3.91 ± 0.64 mm; Inhibition rate (corneal neovascularization) [4]: 50.25%; MVD (corneal microvessel density) [4]: 33.45 ± 6.453 |
| C[C@H](NC(=O)CNC(=O)[C@H](CCCNC(=N)N)NC(=O)CCCCCCCCCCCc1ccccc1N1C(=O)C=CC1=O)C(=O)N[C@@H](CC(=O)O)C(=O)N[C@@H](CCCNC(=N)N)C(=O)N[C@@H](C)C(=O)NCC(=O)NCC(=O)NCC(=O)NCC(=O)N[C@@H](CCCNC(=N)N)C(=O)NCC(=O)N[C@@H](CC(=O)O)C(=O)O [X23] (X68-RGADRAGGGGRGD-OH) | 52.86 | 157 | 45.70 | 85 | 44.53 | 61 | 37.68 | 26 | 45.59 | 0.7191 ± 0.07483 | 46.74 | 0.7043 ± 0.07872 | 48.91 | 0.6753 ± 0.00095 | 0.5946 ± 0.0378 | 11.96 | 0.4982 ± 0.1212 | 26.24 | 0.4363 ± 0.0933 | 35.40 | Swelling degree 1 h ([3]; 2.0 mg/kg once a day for 3 d): 0.28 ± 0.17 mg; Swelling degree 3 h ([3]; 2.0 mg/kg once a day for 3 d): 0.34 ± 0.19 mg; Swelling degree 5 h ([3]; 2.0 mg/kg once a day for 3 d): 0.37 ± 0.11 mg; Swelling degree 7 h ([3]; 2.0 mg/kg once a day for 3 d): 0.35 ± 0.18 mg; Swelling degree 1 h ([3]; 4.0 mg/kg once a day for 3 d): 0.26 ± 0.16 mg; Swelling degree 3 h ([3]; 4.0 mg/kg once a day for 3 d): 0.34 ± 0.19 mg; Swelling degree 5 h ([3]; 4.0 mg/kg once a day for 3 d): 0.38 ± 0.13 mg; Swelling degree 7 h ([3]; 4.0 mg/kg once a day for 3 d): 0.34 ± 0.17 mg; Inhibition rate (corneal neovascularization) [4]: 46.95%; MVD (corneal microvessel density) [4]: 35.67 ± 6.861 |
